From patent US20030044399A1, “Method of treatment” (SmithKline Beecham Corporation, priority 1998, published 2003)
Like-named read-outs stand apart in the source and are kept apart here.

Tests used:
[1] = molecular target: Cruzain (Trypanosoma cruzi, UniProt P25779); assay: Cysteine protease inhibition, progress curve method, cruzain; type: biochemical; details: 4 uM Ac-Lys-Glu-Lys-Leu-Arg-AMC, 100 mM Na acetate pH 5.5, 5 mM cysteine; read-out: Cruzain Ki
Procedure, shortened: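 Buffer was 100 mM sodium acetate pH 5.5 with 5 mM cysteine and 2% DMSO, at ambient temperature; reactions started with enzyme, and AMC formation was followed for 20–30 min. Substrates: Leishmania and Schistosoma, 10 uM Cbz-Phe-Arg-AMC; falcipain, 10 uM Cbz-Leu-Arg-AMC; cruzain, 4 uM Ac-Lys-Glu-Lys-Leu-Arg-AMC. Linear curves gave Ki,app; curved ones gave kobs/[I].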

[2] = molecular target: Rhodazain (Trypanosoma brucei rhodesiense, UniProt Q95PM0); assay: Cysteine protease inhibition, progress curve method, rhodazain; type: biochemical, Trypanosoma brucei rhodesiensi; details: 10 uM Cbz-Leu-Arg-AMC, 100 mM Na acetate pH 5.5, 5 mM cysteine
Rhodazain, sequence (Q95PM0 entry or part of it): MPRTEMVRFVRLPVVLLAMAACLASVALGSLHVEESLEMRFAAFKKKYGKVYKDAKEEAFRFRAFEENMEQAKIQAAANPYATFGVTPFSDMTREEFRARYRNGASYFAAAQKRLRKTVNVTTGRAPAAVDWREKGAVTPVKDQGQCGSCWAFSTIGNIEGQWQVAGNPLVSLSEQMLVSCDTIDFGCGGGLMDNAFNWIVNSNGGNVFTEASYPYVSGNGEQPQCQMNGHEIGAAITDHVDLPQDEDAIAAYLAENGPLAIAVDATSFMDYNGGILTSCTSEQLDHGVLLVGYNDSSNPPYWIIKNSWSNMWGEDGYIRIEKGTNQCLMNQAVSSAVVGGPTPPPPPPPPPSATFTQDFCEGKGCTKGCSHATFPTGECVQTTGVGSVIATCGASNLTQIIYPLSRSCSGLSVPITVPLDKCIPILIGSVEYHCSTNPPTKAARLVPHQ
Procedure: Standard assay conditions for the determination of kinetic constants used 10 uM fluorogenic peptide substrate, Cbz-Phe-Arg-AMC for the cysteine proteases from Leishmania spp and Schistosoma Mansoni, Cbz-Leu-Arg-AMC for the cysteine proteases from Plasmodium falciparum and Trypanosoma brucei rhodesiensi, and Ac-Lys-Glu-Lys-Leu-Arg-AMC (4 uM final substrate concentration) for the cysteine protease from Trypoanosoma cruzi, and were determined in 100 mM Na acetate at pH 5.5 containing 5 mM cysteine. Stock substrate solutions were prepared at concentrations of […] in DMSO with 10 uM (4 uM for Ac-Lys-Glu-Lys-Leu-Arg-AMC) final substrate concentration in the assays. The final DMSO concentration was 2% and the final volume was 100 uL. All assays were conducted at ambient temperature. Product progress curves were generated over 20 to 30 minutes following formation of AMC product.
Potential inhibitors were evaluated using the progress curve method. Assays were carried out in the presence of variable concentrations of test compound. Reactions were initiated by addition of enzyme to buffered solutions of inhibitor and substrate. Data analysis was conducted according to one of two procedures depending on the appearance of the progress curves in the presence of inhibitors. For those compounds whose progress curves were linear, apparent inhibition constants (Ki,app) were calculated according to equation 1 (Brandt et al., Biochemitsry, 1989, 28, 140):
v=VmA/[Ka(1+I/Ki,app)+A] (1)
Where v is the velocity of the reaction with maximal velocity Vm, A is the concentration of substrate with Michaelis constant of Ka, and I is the concentration of inhibitor.
[AMC]=vsst+(v0−vss)[1−exp (−kobst)]/kobs (2)
Where [AMC] is the concentration of product formed over time t, v0 is the initial reaction velocity and vss is the final steady state rate. Values for kobs were then analyzed as a linear function of inhibitor concentration to generate an apparent second order rate constant (kobs/inhibitor concentration or kobs/[I]) describing the time-dependent inhibition. A complete discussion of this kinetic treatment has been fully described (Morrison et al., Adv. Enzymol. Relat. Areas Mol. Biol., 1988, 61, 201).
Exemplary inhibition data for the compounds used in the present method collected in accordance with the above-described procedure are listed in Table I.

Cruzain, sequence (P25779 123-337): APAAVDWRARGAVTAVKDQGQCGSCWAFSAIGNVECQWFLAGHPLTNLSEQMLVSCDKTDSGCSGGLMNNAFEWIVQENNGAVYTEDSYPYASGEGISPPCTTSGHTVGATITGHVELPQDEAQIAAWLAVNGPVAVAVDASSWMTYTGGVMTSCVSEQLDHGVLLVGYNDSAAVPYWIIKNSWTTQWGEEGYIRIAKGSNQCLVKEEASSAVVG

Row | Structure (SMILES) | Ki [1] [nM] | Ki ([2]; Rhodazain Ki (nM)) [nM] | Ki ([2]; read-out: Rhodazain Ki) [nM]
1 | CC(C)C[C@@H](NC(=O)c1cc2cc(F)ccc2o1)C(=O)N[C@H]1CCCN(S(=O)(=O)c2cccc[n+]2[O-])CC1=O (single isomer, unassigned) [Example 194] | 8.7 | 6.7 | 
2 | CC(C)C[C@H](NC(=O)c1cc2ccccc2o1)C(=O)N[C@H]1CCCN(S(=O)(=O)c2nccs2)CC1=O [Example 130, Benzofuran-2-carboxylic acid {(S)-3-methyl-1-[3-oxo-1-(thiazole-2-sulfonyl)-azepan-4-ylcarbamoyl]-butyl}amide] | 2.5 | 2.6 | 
3 | CC(C)C[C@@H](NC(=O)c1ccc(Br)o1)C(=O)N[C@@H]1CCCN(S(=O)(=O)c2cccc[n+]2[O-])CC1=O [Example 50, 5-Bromo-furan-2-carboxylic acid {(S)-3-methyl-1-[3-oxo-1-(1-oxy-pyridine-2-sulfonyl)-azepan-4-ylcarbamoyl]-butyl}amide] | 10 | 2.1 | 
4 | CC(C)CC(NC(=O)c1cc2ccccc2n1C)C(=O)NC1CCCN(S(=O)(=O)c2cccs2)CC1=O [Example 148, 1-Methyl-1-H-indole-2-carboxylic acid-{(S)-3-methyl-1-[3-oxo-1-(thiophene-2-sulfonyl)-azepan-4-ylcarbamoyl]-butyl}-amide] | 8.2 | 23 | 
5 | CC(C)C[C@H](NC(=O)c1ccc2ccccc2n1)C(=O)N[C@H]1CCCN(C(=O)Nc2ccccc2F)CC1=O [Example 219, Quinoline-2-carboxylic acid {(S)-1-[1-(2-fluoro-phenylcarbamoyl)-3-oxo-azepan-4-ylcarbamoyl]-3-methyl-butyl}-amide] | 8.4 | 5.5 | 
6 | COc1ccc2c(C)c(C(=O)NC(CC(C)C)C(=O)N[C@H]3CCN(S(=O)(=O)c4cccc[n+]4[O-])CCC3=O)oc2c1 (single isomer, unassigned) [Example 211] | 10 | 2.8 | 
7 | CC(C)C[C@H](NC(=O)c1cc2ccccc2o1)C(=O)N[C@H]1C[C@H](C)CN(S(=O)(=O)c2ccccn2)CC1=O (single isomer, unassigned) [Example 167] | 3.5 | 4 | 
8 | CC(C)C[C@H](NC(=O)c1cc2ccccc2o1)C(=O)N[C@H]1C[C@H](C)CN(S(=O)(=O)c2ccccn2)CC1=O (single isomer, unassigned) [Example 173] | 2 | 2.2 | 
9 | Cc1c(C(=O)N[C@@H](CC(C)C)C(=O)N[C@@H]2CCCN(S(=O)(=O)c3cccs3)CC2=O)oc2ccccc12 [Example 145, 3-Methyl-benzofuran-2-carboxylic acid-{(S)-3-methyl-1-[3-oxo-1-(thiophene-2-sulfonyl)-azepan-4-ylcarbamoyl]-butyl}-amide] | 6.2 | 9.4 | 
10 | CC(C)C[C@@H](NC(=O)c1cc2cc(F)c(F)cc2o1)C(=O)N[C@@H]1CCCN(S(=O)(=O)c2ccccn2)CC1=O (single isomer, unassigned) [Example 150] | 5.4 | 3.7 | 
11 | Cc1ccc2oc(C(=O)N[C@@H](CC(C)C)C(=O)NC3CCCN(S(=O)(=O)c4cccc[n+]4[O-])CC3=O)c(C)c2c1 (stereo partly drawn) [Example 201, 3,5-Dimethyl-benzofuran-2-carboxylic acid {(S)-3-methyl-1-[3-oxo-1-(1-oxy-pyridine-2-sulfonyl)-azepan-4-ylcarbamoyl]-butyl}-amide] | 10 |  | 7.6
12 | Cc1c(C(=O)N[C@H](CC(C)C)C(=O)N[C@H]2CCCN(S(=O)(=O)c3cccc[n+]3[O-])CC2=O)oc2ccc(F)cc12 (single isomer, unassigned) [Example 195] | 9.4 | 6.6 | 
13 | Cc1ccc(C(=O)NC(CC(C)C)C(=O)N[C@@H]2CCCN(S(=O)(=O)c3cccc[n+]3[O-])CC2=O)s1 (stereo partly drawn) [Example 79, 5-Methyl-thiophene-2-carboxylic acid {(S)-3-methyl-1-[3-oxo-1-(1-oxy-1pyridine-2-sulfonyl)-azepan-4-ylcarbamoyl]-butyl}amide] | 16 | 8 | 
14 | CC(C)C[C@@H](NC(=O)c1cnc2ccccc2n1)C(=O)N[C@@H]1CCCN(S(=O)(=O)c2ccccn2)CC1=O (stereo in doubt) [Example 30, Quinoxaline-2-carboxylic acid {(S)-3-methyl-1-[3-oxo-1-(pyridine-2-sulfonyl)-azepan-4-ylcarbamoyl]-butyl}amide] | 17 | 10 | 
15 | CC(C)C[C@H](NC(=O)c1cc2ccccc2o1)C(=O)NC1CCCN(S(=O)(=O)c2cccc(F)c2)CC1=O (stereo partly drawn) [Example 183, Benzofuran-2-carboxylic acid {(S)-1-[-(3-fluoro-benzensulfonyl)-3-oxo-azepan-4-ylcarbamoyl]-3-methyl-1-butyl}-amide] | 7.1 | 6.5 | 
16 | CC(C)C[C@H](NC(=O)c1cnc2ccccc2n1)C(=O)NC1CCCN(C(=O)Nc2ccccc2F)CC1=O (stereo partly drawn) [Example 217, Quinoxaline-2-carboxylic acid {(S)-1-[1-(2-fluoro-phenylcarbamol)-3-oxo-azepan-4-ylcarbamoyl]-3-methyl-butyl}-amide] | 11 | 6.7 | 
17 | CC(C)C[C@@H](NC(=O)c1nccc2ccccc12)C(=O)N[C@@H]1CCCN(S(=O)(=O)c2ccccn2)CC1=O (single isomer, unassigned) [Example 154] | 4.4 | 4.4 | 
18 | CCc1c(C(=O)NC(CC(C)C)C(=O)N[C@H]2CCN(S(=O)(=O)c3cccc[n+]3[O-])CCC2=O)oc2ccccc12 (single isomer, unassigned) [Example 207] | 10 | 5.4 | 
19 | COc1cccc2oc(C(=O)N[C@@H](CC(C)C)C(=O)NC3CCCN(S(=O)(=O)c4cccc[n+]4[O-])CC3=O)c(C)c12 (stereo partly drawn) [Example 209, 4-Methoxy-3-methyl-benzofuran-2-carboxylic acid {(S)-3-methyl-1-[3-oxo-1-(1-oxy-pyridine-2-sulfonyl)-azepan-4-ylcarbamoyl]-butyl}-amide] | 8.9 |  | 4.1
20 | COc1ccc2oc(C(=O)N[C@H](CC(C)C)C(=O)N[C@@H]3CCCN(S(=O)(=O)c4cccc[n+]4[O-])CC3=O)cc2c1 (single isomer, unassigned) [Example 63] | 9.8 | 5.9 | 
21 | CC(C)C[C@@H](NC(=O)c1cc2ccccc2o1)C(=O)N[C@@H]1CCCN(S(=O)(=O)c2ccccn2)CC1=O [Example 16] | 6.1 | 5.5 | 
22 | Cc1c(C(=O)N[C@@H](CC(C)C)C(=O)N[C@H]2CCCN(S(=O)(=O)c3ccccc3F)CC2=O)oc2ccccc12 [Example 94, 3-methylbenzofuran-2-carboxylic acid-{(S)-1-[1-(2-fluoro-benzenesulfonyl)-3-oxo-azepan-4-ylcarbamoyl]-3-methyl-butyl}-amide] | 8.6 | 9.4 | 
23 | Cc1oc(-c2ccccc2)nc1C(=O)N[C@@H](CC(C)C)C(=O)NC1CCCN(S(=O)(=O)c2ccccn2)CC1=O (stereo partly drawn) [Example 106, 5-Methyl-2-phenyl-oxazole-4-carboxylic acid {(S)-3-methyl-1-[3-oxo-1-(pyridine-2-sulfonyl)-azepan-4-ylcarbamoyl]-butyl}amide] | 16 | 5.8 | 
24 | CC(C)C[C@@H](NC(=O)c1ccc2c(c1)OCO2)C(=O)N[C@@H]1CCCN(S(=O)(=O)c2cccc[n+]2[O-])CC1=O [Example 55, Benzo[1,3]dioxole-5-carboxylic acid {(S)-3-methyl-1-[3-oxo-1-(1-oxy-pyridine-2-sulfonyl)-azepan-4-ylcarbamoyl]-butyl}amide] | 12 | 7.3 | 
25 | Cc1c(C(=O)N[C@@H](CC(C)C)C(=O)N[C@H]2CCCN(S(=O)(=O)c3nccs3)CC2=O)oc2ccccc12 [Example 126, 3-Methylbenzofuran-2-carboxylic acid {(S)-3-methyl-1-[3-oxo-1-(thiazole-2-sulfonyl)-azepan-4-ylcarbamoyl]-butyl}amide] | 4.3 | 3.8 | 
26 | COc1cccc2cc(C(=O)N[C@@H](CC(C)C)C(=O)N[C@H]3CCCN(S(=O)(=O)c4nccs4)CC3=O)oc12 [Example 125] | 4 | 4.1 | 
